Experimental data taken from ChEMBL document CHEMBL5030507, “Structure-Based Design of a Selective Class I Histone Deacetylase (HDAC) Near-Infrared (NIR) Probe for Epigenetic Regulation Detection in Triple-Negative Breast Cancer (TNBC)” (J Med Chem, 2021).

Tests used:
[1] = Cytotoxicity against human WI-38 cells assessed as cell growth inhibition incubated for 72 hrs by CCK8 assay; assay type: cell-based
[2] = Selectivity index, ratio of GI50 for cytotoxicity against human WI-38 cells to GI50 for antiproliferative activity against triple-negative human MDA-MB-231 cells; assay type: toxicity, cell-based; settings: WI-38 cells versus MDA-MB-231 cells, read-out: RatioGI50
[3] = Drug distribution in NOD-SCID mouse lung xenografted with triple negative MDA-MB-231 cells at 3 nmol, iv measured 24 hrs post infection by NRI fluorescence imaging analysis; assay type: ADME, organism-based; settings: in vivo
[4] = Drug uptake in tumor of athymic nude mouse xenografted with human MDA-MB-231 cells assessed as reduction in tumor to normal tissue ratio at 3 nmol, iv in presence of (12Z,7S,10S)-7- (4-Aminobutyl)-4-ethylidene-10-((E)-4-(heptyldisulfaneyl)but-1-en-1-yl)-9-oxa-3,6,13-triaza-1(4,2)-thiazolacyclotetradecaphane-2,5,8,12-tetraone measured up to 48 hrs by epifluorescence analysis relative to control; assay type: ADME, organism-based, Neoplasm; settings: in vivo
Histone deacetylase 1 = Histone deacetylase 1 (Homo sapiens, UniProt Q13547); assay: Inhibition of recombinant human C-terminal FLAG/His-tagged HDAC1 (1 to 482 residues) expressed in Sf9 insect cells using fluorometric substrate measured after 60 mins by FRET assay
Histone deacetylase 1, sequence (Q13547 whole entry, the tested form may be a part): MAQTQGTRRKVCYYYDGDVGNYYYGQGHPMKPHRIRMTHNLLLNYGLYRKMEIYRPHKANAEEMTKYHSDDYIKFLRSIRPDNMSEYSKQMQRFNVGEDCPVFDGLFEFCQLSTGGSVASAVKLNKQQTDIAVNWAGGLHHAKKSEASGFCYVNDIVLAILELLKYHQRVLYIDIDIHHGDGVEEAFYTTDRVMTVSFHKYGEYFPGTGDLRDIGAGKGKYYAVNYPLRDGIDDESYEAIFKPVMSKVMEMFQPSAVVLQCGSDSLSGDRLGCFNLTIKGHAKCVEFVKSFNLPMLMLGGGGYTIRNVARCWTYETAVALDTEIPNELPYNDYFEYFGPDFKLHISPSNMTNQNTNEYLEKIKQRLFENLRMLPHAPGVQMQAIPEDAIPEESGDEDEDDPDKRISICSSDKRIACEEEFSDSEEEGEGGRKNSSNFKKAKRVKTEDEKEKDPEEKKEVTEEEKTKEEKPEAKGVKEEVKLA

[5] = molecular target: T1, Protein deacetylase HDAC6 (Homo sapiens, UniProt Q9UBN7); assay: Inhibition of recombinant human full length N-terminal GST-tagged HDAC6 expressed in Sf9 cells using fluorogenic substrate measured after 60 mins by FRET assay
T1 sequence (Q9UBN7 whole entry): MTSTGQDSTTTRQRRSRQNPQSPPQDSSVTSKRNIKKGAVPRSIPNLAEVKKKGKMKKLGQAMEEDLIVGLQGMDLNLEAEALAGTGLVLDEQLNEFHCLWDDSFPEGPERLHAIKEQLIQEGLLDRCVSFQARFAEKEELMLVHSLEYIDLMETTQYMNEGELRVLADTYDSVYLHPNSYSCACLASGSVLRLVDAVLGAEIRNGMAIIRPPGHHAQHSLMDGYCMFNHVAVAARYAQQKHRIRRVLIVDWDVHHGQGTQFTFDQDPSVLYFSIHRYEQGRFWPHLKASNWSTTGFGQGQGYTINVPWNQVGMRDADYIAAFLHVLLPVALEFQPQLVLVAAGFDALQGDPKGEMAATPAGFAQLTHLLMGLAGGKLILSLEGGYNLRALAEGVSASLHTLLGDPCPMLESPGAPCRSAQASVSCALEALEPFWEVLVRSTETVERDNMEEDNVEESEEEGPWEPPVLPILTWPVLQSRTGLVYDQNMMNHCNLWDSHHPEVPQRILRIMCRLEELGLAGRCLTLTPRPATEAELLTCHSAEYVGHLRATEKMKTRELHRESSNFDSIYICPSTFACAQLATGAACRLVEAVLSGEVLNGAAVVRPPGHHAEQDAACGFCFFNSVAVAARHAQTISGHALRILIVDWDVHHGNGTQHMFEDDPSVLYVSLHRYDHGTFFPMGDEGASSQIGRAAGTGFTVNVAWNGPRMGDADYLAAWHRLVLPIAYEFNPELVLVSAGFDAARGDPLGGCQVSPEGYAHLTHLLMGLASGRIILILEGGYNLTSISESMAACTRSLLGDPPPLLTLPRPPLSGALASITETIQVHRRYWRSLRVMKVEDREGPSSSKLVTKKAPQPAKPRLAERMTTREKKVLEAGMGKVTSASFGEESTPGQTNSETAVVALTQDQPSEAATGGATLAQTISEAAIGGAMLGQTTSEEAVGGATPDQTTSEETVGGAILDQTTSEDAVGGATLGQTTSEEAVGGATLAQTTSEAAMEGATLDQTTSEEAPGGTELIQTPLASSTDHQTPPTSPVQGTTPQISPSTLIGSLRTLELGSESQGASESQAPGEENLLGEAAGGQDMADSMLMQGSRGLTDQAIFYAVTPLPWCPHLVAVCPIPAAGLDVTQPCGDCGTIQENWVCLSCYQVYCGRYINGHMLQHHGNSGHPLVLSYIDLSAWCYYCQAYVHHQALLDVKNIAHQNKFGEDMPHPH

Histone deacetylase = assay: Inhibition of recombinant HDAC in human HeLa nuclear extracts using fluorogenic substrate measured after 60 mins by FRET assay
[6] = Drug distribution in triple negative human MDA-MB-231 cells expressing class 1 HDACs assessed as accumulation in nucleus by measuring colocalization of Cy5.5 signal measured for 60 mins by DAPI staining based confocal microscopic analysis; assay type: ADME, cell-based; settings: mda-mb-231, 1 h
[7] = Drug uptake in tumor of athymic nude mouse xenografted with human MDA-MB-231 cells at 3 nmol, iv measured 4 hrs post infection by epifluorescence analysis; assay type: ADME, organism-based, Neoplasm; settings: in vivo
[8] = (§1) Drug uptake in tumor of athymic nude mouse xenografted with human MDA-MB-231 cells at 3 nmol, iv pretreated with (12Z,7S,10S)-7- (4-Aminobutyl)-4-ethylidene-10-((E)-4-(heptyldisulfaneyl)but-1-en-1-yl)-9-oxa-3,6,13-triaza-1(4,2)-thiazolacyclotetradecaphane-2,5,8,12-tetraone followed by compound addition and measured up to 48 hrs by epifluorescence analysis; assay type: ADME, organism-based, Neoplasm; settings: in vivo
[9] = Drug uptake in tumor of athymic nude mouse xenografted with human MDA-MB-231 cells at 3 nmol, iv pretreated with SAHA for 3 days followed by compound addition and measured up to 48 hrs by epifluorescence analysis; assay type: ADME, organism-based, Neoplasm; settings: in vivo
[10] = Drug uptake in triple negative human MDA-MB-231 cells overexpressing class 1 HDACs at 1.5 uM in presence of (12Z,7S,10S)-7- (4-Aminobutyl)-4-ethylidene-10-((E)-4-(heptyldisulfaneyl)but-1-en-1-yl)-9-oxa-3,6,13-triaza-1(4,2)-thiazolacyclotetradecaphane-2,5,8,12-tetraone measured after 60 mins by DAPI staining based confocal microscopic analysis; assay type: ADME, cell-based; settings: mda-mb-231, 1 h
Homo sapiens = species: Homo sapiens; assay: Selectivity index, ratio of IC50 for inhibition of recombinant HDAC in human HeLa nuclear extracts to IC50 for inhibition of recombinant human C-terminal FLAG/His-tagged HDAC1 (1 to 482 residues) expressed in Sf9 insect cells
[11] = Biodistribution in tumor of athymic nude mouse xenografted with human MDA-MB-231 cells assessed as fluorescence intensity at 3 nmol, iv measured 48 hrs post infection by epifluorescence analysis; assay type: ADME, organism-based, Neoplasm; settings: in vivo
[12] = as §1, with “Biodistribution” for “Drug uptake”, “cells assessed as fluorescence intensity” for “cells”, “after” for “up to”; assay type: ADME, organism-based, Neoplasm; settings: in vivo
[13] = Biodistribution in tumor of athymic nude mouse xenografted with human MDA-MB-231 cells assessed as fluorescence intensity at 3 nmol, iv pretreated with SAHA for 3 days followed by compound addition and measured up to 48 hrs by epifluorescence analysis; assay type: ADME, organism-based, Neoplasm; settings: in vivo
[14] = Biodistribution in kidney of athymic nude mouse xenografted with human MDA-MB-231 cells assessed as fluorescence intensity at 3 nmol, iv measured 48 hrs post infection by epifluorescence analysis; assay type: ADME, organism-based; settings: in vivo
[15] = Drug distribution in NOD-SCID mouse lung xenografted with triple negative MDA-MB-231 cells assessed as accumulation in metastatic lungs by measuring increase in fluorescence intensity at 3 nmol, iv measured 24 hrs post infection by NRI fluorescence imaging analysis (Rvb= 2.2+/- 0.5 10^9/s/cm2); assay type: ADME, organism-based; settings: in vivo
[16] = molecular target: Histone deacetylase 3/Nuclear receptor corepressor 2 (HDAC3/NCoR2) (Homo sapiens, UniProt O15379); assay: Inhibition of C-terminal His-tagged recombinant human HDAC3 (1 to 428 residues)/N-terminal GST-tagged recombinant human NCoR2 (395 to 489 residues) co-expressed in baculovirus infected Sf9 cells using fluorometric substrate measured after 60 mins by FRET assay
Histone deacetylase 3/Nuclear receptor corepressor 2 (HDAC3/NCoR2), sequence (O15379 whole entry, the tested form may be a part): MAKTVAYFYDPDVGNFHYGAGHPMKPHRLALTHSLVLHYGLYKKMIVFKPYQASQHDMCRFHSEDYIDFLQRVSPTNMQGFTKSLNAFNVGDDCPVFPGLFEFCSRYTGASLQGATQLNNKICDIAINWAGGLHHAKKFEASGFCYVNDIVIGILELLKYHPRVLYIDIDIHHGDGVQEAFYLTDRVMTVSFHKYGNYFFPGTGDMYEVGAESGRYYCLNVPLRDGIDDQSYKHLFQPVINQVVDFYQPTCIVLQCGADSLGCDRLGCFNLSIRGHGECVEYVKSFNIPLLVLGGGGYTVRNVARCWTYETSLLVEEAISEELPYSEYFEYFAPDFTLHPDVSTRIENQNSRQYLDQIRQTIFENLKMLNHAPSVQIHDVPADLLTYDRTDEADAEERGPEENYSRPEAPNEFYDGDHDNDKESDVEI
Histone deacetylase 3/Nuclear receptor corepressor 2 (HDAC3/NCoR2), sequence (Q9Y618 whole entry, further chain, the tested form may be a part): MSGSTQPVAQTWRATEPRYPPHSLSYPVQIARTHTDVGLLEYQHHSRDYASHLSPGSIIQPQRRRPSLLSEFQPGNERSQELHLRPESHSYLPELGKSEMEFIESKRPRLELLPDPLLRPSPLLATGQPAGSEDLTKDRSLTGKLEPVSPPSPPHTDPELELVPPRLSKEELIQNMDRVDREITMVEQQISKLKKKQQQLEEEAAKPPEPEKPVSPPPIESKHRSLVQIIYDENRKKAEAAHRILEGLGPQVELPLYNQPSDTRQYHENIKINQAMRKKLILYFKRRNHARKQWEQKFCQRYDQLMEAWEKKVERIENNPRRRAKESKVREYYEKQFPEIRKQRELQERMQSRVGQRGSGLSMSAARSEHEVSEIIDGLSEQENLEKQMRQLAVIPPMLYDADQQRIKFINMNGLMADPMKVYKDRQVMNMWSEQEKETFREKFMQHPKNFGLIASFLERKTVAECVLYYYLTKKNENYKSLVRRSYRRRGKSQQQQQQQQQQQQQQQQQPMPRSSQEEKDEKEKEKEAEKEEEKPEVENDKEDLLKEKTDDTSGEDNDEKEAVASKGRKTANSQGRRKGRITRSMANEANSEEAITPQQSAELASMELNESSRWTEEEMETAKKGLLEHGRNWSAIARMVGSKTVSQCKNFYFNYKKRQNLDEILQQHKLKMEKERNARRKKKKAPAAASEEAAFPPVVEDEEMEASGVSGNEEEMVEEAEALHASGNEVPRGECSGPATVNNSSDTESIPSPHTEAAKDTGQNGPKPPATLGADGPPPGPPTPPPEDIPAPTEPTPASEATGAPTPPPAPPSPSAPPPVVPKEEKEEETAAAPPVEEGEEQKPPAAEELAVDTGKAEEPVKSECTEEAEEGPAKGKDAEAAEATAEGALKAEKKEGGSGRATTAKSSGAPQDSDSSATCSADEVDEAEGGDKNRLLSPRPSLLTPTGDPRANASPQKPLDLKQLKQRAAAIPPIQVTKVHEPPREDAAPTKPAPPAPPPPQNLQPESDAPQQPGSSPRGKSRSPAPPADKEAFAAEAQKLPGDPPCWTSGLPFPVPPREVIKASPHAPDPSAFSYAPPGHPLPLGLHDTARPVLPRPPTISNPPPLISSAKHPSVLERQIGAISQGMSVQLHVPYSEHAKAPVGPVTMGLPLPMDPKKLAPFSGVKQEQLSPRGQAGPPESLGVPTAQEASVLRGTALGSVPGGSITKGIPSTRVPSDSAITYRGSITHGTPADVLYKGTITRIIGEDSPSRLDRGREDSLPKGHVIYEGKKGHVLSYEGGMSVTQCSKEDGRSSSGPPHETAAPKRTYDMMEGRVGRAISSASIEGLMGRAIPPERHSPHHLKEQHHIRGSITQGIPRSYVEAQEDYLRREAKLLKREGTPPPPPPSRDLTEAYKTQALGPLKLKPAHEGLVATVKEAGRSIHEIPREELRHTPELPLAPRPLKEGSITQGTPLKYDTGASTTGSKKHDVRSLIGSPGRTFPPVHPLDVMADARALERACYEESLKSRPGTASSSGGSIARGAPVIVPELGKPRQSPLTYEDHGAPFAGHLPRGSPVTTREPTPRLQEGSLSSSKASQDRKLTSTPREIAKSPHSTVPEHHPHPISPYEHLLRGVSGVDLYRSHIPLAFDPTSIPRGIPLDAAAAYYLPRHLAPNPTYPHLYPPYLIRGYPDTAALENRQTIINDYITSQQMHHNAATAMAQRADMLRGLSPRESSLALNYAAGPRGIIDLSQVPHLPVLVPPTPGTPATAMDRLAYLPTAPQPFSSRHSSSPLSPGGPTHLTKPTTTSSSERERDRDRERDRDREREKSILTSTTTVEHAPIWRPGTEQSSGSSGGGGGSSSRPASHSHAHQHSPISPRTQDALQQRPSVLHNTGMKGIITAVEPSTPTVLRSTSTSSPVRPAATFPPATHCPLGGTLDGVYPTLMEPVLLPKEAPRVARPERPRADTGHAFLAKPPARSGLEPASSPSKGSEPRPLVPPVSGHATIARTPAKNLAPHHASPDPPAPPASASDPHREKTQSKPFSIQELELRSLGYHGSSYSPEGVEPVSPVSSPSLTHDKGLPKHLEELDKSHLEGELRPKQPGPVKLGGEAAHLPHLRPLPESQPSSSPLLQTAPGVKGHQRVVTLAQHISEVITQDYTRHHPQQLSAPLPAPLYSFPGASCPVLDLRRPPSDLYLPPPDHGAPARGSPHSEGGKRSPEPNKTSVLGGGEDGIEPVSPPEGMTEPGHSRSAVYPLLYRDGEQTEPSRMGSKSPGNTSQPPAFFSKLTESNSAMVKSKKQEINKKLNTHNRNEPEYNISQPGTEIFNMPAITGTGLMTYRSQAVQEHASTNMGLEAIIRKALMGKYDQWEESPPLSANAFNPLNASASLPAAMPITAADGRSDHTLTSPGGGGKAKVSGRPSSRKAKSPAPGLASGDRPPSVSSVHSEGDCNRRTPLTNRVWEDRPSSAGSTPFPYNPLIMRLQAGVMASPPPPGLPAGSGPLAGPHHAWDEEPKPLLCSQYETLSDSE

Histone deacetylase 2 = Histone deacetylase 2 (Homo sapiens, UniProt Q92769); assay: biochemical; assay type: cell-based, Sf9
Histone deacetylase 2, sequence (Q92769 whole entry): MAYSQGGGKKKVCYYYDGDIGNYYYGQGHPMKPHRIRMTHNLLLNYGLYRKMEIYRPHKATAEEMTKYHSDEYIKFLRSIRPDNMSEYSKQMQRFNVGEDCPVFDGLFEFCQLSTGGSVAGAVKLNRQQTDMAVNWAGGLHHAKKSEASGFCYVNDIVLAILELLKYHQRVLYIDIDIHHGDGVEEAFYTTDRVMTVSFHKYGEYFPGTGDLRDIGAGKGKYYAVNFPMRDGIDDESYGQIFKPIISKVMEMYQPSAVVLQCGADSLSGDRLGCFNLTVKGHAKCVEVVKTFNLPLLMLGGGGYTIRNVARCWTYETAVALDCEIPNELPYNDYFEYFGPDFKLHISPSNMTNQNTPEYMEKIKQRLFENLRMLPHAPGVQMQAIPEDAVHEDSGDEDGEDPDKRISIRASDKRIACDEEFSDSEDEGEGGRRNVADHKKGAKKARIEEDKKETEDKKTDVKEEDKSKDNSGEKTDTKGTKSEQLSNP
Description: Inhibition of recombinant human full length C-terminal His- tagged HDAC2 (1 to 488 residues) expressed in Sf9 insect cells using fluorometric substrate measured after 60 mins by FRET assay

Histone deacetylase 8 = molecular target: T2, Histone deacetylase 8 (Homo sapiens, UniProt Q9BY41); assay: Inhibition of recombinant human full length C-terminal His-tagged HDAC8 expressed in baculovirus infected Sf9 insect cells using fluorometric substrate measured after 60 mins by FRET assay
T2 sequence (Q9BY41 whole entry): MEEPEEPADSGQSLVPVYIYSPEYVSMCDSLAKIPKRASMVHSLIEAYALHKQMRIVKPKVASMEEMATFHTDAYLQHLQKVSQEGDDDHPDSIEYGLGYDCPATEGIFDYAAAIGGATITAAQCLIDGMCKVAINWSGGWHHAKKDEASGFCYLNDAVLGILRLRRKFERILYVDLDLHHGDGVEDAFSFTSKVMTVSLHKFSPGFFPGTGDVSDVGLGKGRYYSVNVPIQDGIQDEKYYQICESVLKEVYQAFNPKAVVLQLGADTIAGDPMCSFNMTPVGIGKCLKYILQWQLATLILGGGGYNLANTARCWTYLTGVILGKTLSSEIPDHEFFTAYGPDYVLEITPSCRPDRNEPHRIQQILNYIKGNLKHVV

[17] = molecular target: T3, Polyamine deacetylase HDAC10 (Homo sapiens, UniProt Q969S8); assay: Inhibition of recombinant human N-terminal FLAG tagged HDAC10 (2 to 631 residues) expressed in baculovirus infected Sf9 insect cells using fluorogenic substrate measured after 60 mins by FRET assay
T3 sequence (Q969S8 whole entry): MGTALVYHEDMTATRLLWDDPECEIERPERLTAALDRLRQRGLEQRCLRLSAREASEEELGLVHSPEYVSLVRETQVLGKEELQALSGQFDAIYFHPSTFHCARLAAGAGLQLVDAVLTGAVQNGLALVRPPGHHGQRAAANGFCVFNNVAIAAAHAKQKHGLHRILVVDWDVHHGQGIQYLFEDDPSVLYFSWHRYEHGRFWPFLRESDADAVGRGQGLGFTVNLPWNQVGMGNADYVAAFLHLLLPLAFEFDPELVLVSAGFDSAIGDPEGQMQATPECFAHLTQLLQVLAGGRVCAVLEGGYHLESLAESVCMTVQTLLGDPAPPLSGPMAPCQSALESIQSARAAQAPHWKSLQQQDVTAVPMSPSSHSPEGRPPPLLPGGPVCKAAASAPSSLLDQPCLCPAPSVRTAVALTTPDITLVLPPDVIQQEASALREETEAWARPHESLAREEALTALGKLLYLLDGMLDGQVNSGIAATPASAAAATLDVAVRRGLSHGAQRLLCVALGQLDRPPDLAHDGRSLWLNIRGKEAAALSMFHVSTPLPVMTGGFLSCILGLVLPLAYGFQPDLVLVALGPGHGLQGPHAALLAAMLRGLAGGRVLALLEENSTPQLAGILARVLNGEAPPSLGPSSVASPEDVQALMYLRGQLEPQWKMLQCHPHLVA

MDA-MB-231 = assay: Antiproliferative activity against triple-negative human MDA-MB-231 cells assessed as cell growth inhibition incubated for 72 hrs by CCK8 assay; assay type: functional

C/C=C1\NC(=O)[C@H]2CSSCC/C=C/[C@H](CC(=O)N[C@H](C(C)C)C(=O)N2)OC(=O)[C@H](C(C)C)NC1=O [ROMIDEPSIN]
GI50 at 72 h [1]: 30.1 nM | selectivity ratio [2]: 3.1

C/C=C1\NC(=O)c2csc(n2)CNC(=O)C[C@@H](/C=C/CCSSCCCCCCC)OC(=O)[C@H](CCCCNC(=O)CCCCC[N+]2=C(/C=C/C=C/C=C3/N(CC)c4ccc5c(S(=O)(=O)O)cc(S(=O)(=O)O)cc5c4C3(C)C)C(C)(C)c3c2ccc2c(S(=O)(=O)[O-])cc(S(=O)(=O)O)cc32)NC1=O
Drug uptake [3]: Active | Drug uptake [4]: 70% | IC50 (Histone deacetylase 1): 8 nM | IC50 [5]: 70 nM | IC50 (Histone deacetylase): 824 nM | Drug uptake [6]: Active | Drug uptake [7]: Active | Drug uptake [8]: Not Active | Drug uptake [9]: Not Active | Drug uptake [10]: Not Active | Ratio IC50 (Homo sapiens): 100 | Flu intensity [11]: 3.13 10^9/s/cm2 | Flu intensity [12]: 1.95 10^9/s/cm2 | Flu intensity [13]: 1.33 10^9/s/cm2 | Flu intensity [14]: 3.06 10^9/s/cm2 | Flu intensity [15]: 8 10^9/s/cm2

C/C=C1\NC(=O)c2csc(n2)CNC(=O)C[C@@H](/C=C/CCSC(=O)CCCCCCC)OC(=O)[C@H](C(C)C)NC1=O
IC50 (Histone deacetylase 1): 3.1 nM | IC50 [16]: 8.9 nM | IC50 (Histone deacetylase 2): 5.3 nM | IC50 (Histone deacetylase 8): 3960 nM | IC50 [5]: 1810 nM | IC50 [17]: 37 nM | GI50 (MDA-MB-231): 11.3 nM | GI50 at 72 h [1]: 363 nM | selectivity ratio [2]: 32
